{
  "source": "patent US5160526A",
  "about": "“Alkene stabilizers for 3-isothiazolone compounds” (priority 1991, dated 1992)",
  "key": {"[1]": {"details": "2-propanol + 2% water, 55° C", "protocol": "A solution of 5-chloro-2methyl-3-isothiazolone (\"5-Chloro\") and 2-methyl-3-isothiazolone (\"2-Methyl\") (3.11 g) was prepared in 2-propanol (12.1 g). This solution was distributed in 6 vials. Water (2%) and varying amounts of norbornene were then added. These were then put in a 55° C. oven and analyzed periodically."}, "[2]": {"experiment": "Stabilization of 5-Chloro and 2-Methyl mixture by norbornene in 2-propanol, 55° C oven", "assay_type": "physicochemical", "details": "2-propanol, 55° C", "description": "This solution was distributed into 6 vials and varying amounts of norbornene added."}, "[3]": {"assay_type": "physicochemical", "details": "2-propanol, 55° C", "protocol": "Varying amounts of DHP were added and the vials put in a 55° C. oven. Active ingredient analysis was done periodically."}, "[4]": {"assay_type": "physicochemical", "details": "DPG, 55° C", "protocol": "This solution was distributed into 6 vials (3 g each) and varying amounts of cyclohexene were added. The vials were then heated at 55° C. and analyzed periodically."}, "[5]": {"experiment": "Stabilization of 5-Chloro and 2-Methyl mixture by norbornene in dipropylene glycol containing 0.5% water, 55° C oven", "assay_type": "physicochemical", "details": "DPG (0.5% water)", "protocol": "To 19.9 g of dipropylene glycol was added 0.1 g of water. […] This solution was distributed into 6 vials and varying amounts of norbornene were added."}},
  "note": "Like-named read-outs stand apart in the source and are kept apart here.",
  "data": [
    {"smiles": "Cn1sccc1=O", "note": "[2-methyl-3-isothiazolone]", "values": [
      {"measurement": "2-Methyl (%) / 5-Chloro (%)", "setting": "[1]; 0% norbornene, 0 days", "value": 1.7, "unit": "%"},
      {"measurement": "2-Methyl (%) / 5-Chloro (%)", "setting": "[1]; 0% norbornene, 7 days", "value": 0.22, "unit": "%"},
      {"measurement": "2-Methyl (%) / 5-Chloro (%)", "setting": "[1]; 1.2% norbornene, 0 days", "value": 2.3, "unit": "%"},
      {"measurement": "2-Methyl (%) / 5-Chloro (%)", "setting": "[1]; 1.2% norbornene, 7 days", "value": 0.14, "unit": "%"},
      {"measurement": "2-Methyl (%) / 5-Chloro (%)", "setting": "[1]; 2.3% norbornene, 0 days", "value": 2.3, "unit": "%"},
      {"measurement": "2-Methyl (%) / 5-Chloro (%)", "setting": "[1]; 2.3% norbornene, 7 days", "value": 0.08, "unit": "%"},
      {"measurement": "2-Methyl (%) / 5-Chloro (%)", "setting": "[1]; 4.2% norbornene, 0 days", "value": 2.2, "unit": "%"},
      {"measurement": "2-Methyl (%) / 5-Chloro (%)", "setting": "[1]; 4.2% norbornene, 7 days", "value": 0.10, "unit": "%"},
      {"measurement": "2-Methyl (%) / 5-Chloro (%)", "setting": "[1]; 8.1% norbornene, 0 days", "value": 2.2, "unit": "%"},
      {"measurement": "2-Methyl (%) / 5-Chloro (%)", "setting": "[1]; 8.1% norbornene, 7 days", "value": 0.10, "unit": "%"},
      {"measurement": "2-Methyl (%) / 5-Chloro (%)", "setting": "[1]; 14.1% norbornene, 0 days", "value": 2.0, "unit": "%"},
      {"measurement": "2-Methyl (%) / 5-Chloro (%)", "setting": "[1]; 14.1% norbornene, 7 days", "value": 0.97, "unit": "%"},
      {"measurement": "2-Methyl (%) / 5-Chloro (%)", "setting": "[1]; 14.1% norbornene, 21 days", "value": 0.1, "unit": "%"},
      {"measurement": "% Remaining After X Days", "setting": "[2]; 0% norbornene, 0 days", "value": 4.9, "unit": "%"},
      {"measurement": "% Remaining After X Days", "setting": "[2]; 0% norbornene, 2 days", "value": 0.4, "unit": "%"},
      {"measurement": "% Remaining After X Days", "setting": "[2]; 0% norbornene, 30 days", "value": 0.7, "unit": "%"},
      {"measurement": "stabilization with norbornene (in words)", "setting": "[2]", "value": "completely stabilized"},
      {"measurement": "% Remaining After X Days", "setting": "[2]; 3% norbornene, 0 days", "value": 4.7, "unit": "%"},
      {"measurement": "% Remaining After X Days", "setting": "[2]; 3% norbornene, 2 days", "value": 4.4, "unit": "%"},
      {"measurement": "% Remaining After X Days", "setting": "[2]; 3% norbornene, 30 days", "value": 3.9, "unit": "%"},
      {"measurement": "% Remaining After X Days", "setting": "[2]; 6.3% norbornene, 0 days", "value": 4.5, "unit": "%"},
      {"measurement": "% Remaining After X Days", "setting": "[2]; 6.3% norbornene, 2 days", "value": 4.3, "unit": "%"},
      {"measurement": "% Remaining After X Days", "setting": "[2]; 6.3% norbornene, 30 days", "value": 4.0, "unit": "%"},
      {"measurement": "% Remaining After X Days", "setting": "[2]; 11.8% norbornene, 0 days", "value": 4.2, "unit": "%"},
      {"measurement": "% Remaining After X Days", "setting": "[2]; 11.8% norbornene, 2 days", "value": 4.0, "unit": "%"},
      {"measurement": "% Remaining After X Days", "setting": "[2]; 11.8% norbornene, 30 days", "value": 3.9, "unit": "%"},
      {"measurement": "% Remaining After X Days", "setting": "[2]; 16.7% norbornene, 0 days", "value": 4.0, "unit": "%"},
      {"measurement": "% Remaining After X Days", "setting": "[2]; 16.7% norbornene, 2 days", "value": 3.9, "unit": "%"},
      {"measurement": "% Remaining After X Days", "setting": "[2]; 16.7% norbornene, 30 days", "value": 3.7, "unit": "%"},
      {"measurement": "% Remaining After X Days", "setting": "[2]; 21.0% norbornene, 0 days", "value": 3.9, "unit": "%"},
      {"measurement": "% Remaining After X Days", "setting": "[2]; 21.0% norbornene, 2 days", "value": 3.8, "unit": "%"},
      {"measurement": "% Remaining After X Days", "setting": "[2]; 21.0% norbornene, 30 days", "value": 3.7, "unit": "%"},
      {"measurement": "2-Methyl (%) / 5-Chloro (%)", "setting": "[3]; 0% DHP, 0 days", "value": 5.3, "unit": "%"},
      {"measurement": "2-Methyl (%) / 5-Chloro (%)", "setting": "[3]; 0% DHP, 12 days", "value": 0.4, "unit": "%"},
      {"measurement": "2-Methyl (%) / 5-Chloro (%)", "setting": "[3]; 3.5% DHP, 0 days", "value": 5.1, "unit": "%"},
      {"measurement": "2-Methyl (%) / 5-Chloro (%)", "setting": "[3]; 3.5% DHP, 12 days", "value": 0.7, "unit": "%"},
      {"measurement": "2-Methyl (%) / 5-Chloro (%)", "setting": "[3]; 6.3% DHP, 0 days", "value": 5.0, "unit": "%"},
      {"measurement": "2-Methyl (%) / 5-Chloro (%)", "setting": "[3]; 6.3% DHP, 12 days", "value": 0.6, "unit": "%"},
      {"measurement": "2-Methyl (%) / 5-Chloro (%)", "setting": "[3]; 11.8% DHP, 0 days", "value": 4.2, "unit": "%"},
      {"measurement": "2-Methyl (%) / 5-Chloro (%)", "setting": "[3]; 11.8% DHP, 12 days", "value": 0.7, "unit": "%"},
      {"measurement": "2-Methyl (%) / 5-Chloro (%)", "setting": "[3]; 16.7% DHP, 0 days", "value": 4.4, "unit": "%"},
      {"measurement": "2-Methyl (%) / 5-Chloro (%)", "setting": "[3]; 16.7% DHP, 12 days", "value": 0.7, "unit": "%"},
      {"measurement": "2-Methyl (%) / 5-Chloro (%)", "setting": "[3]; 21.1% DHP, 0 days", "value": 4.2, "unit": "%"},
      {"measurement": "2-Methyl (%) / 5-Chloro (%)", "setting": "[3]; 21.1% DHP, 12 days", "value": 0.6, "unit": "%"},
      {"measurement": "2-Methyl (%) / 5-Chloro (%)", "setting": "[4]; 0% cyclohexene, 0 days", "value": 5.0, "unit": "%"},
      {"measurement": "2-Methyl (%) / 5-Chloro (%)", "setting": "[4]; 0% cyclohexene, 13 days", "value": 0.49, "unit": "%"},
      {"measurement": "2-Methyl (%) / 5-Chloro (%)", "setting": "[4]; 3.2% cyclohexene, 0 days", "value": 4.7, "unit": "%"},
      {"measurement": "2-Methyl (%) / 5-Chloro (%)", "setting": "[4]; 3.2% cyclohexene, 13 days", "value": 0.35, "unit": "%"},
      {"measurement": "2-Methyl (%) / 5-Chloro (%)", "setting": "[4]; 6.8% cyclohexene, 0 days", "value": 4.6, "unit": "%"},
      {"measurement": "2-Methyl (%) / 5-Chloro (%)", "setting": "[4]; 6.8% cyclohexene, 13 days", "value": 0.23, "unit": "%"},
      {"measurement": "2-Methyl (%) / 5-Chloro (%)", "setting": "[4]; 9.1% cyclohexene, 0 days", "value": 4.5, "unit": "%"},
      {"measurement": "2-Methyl (%) / 5-Chloro (%)", "setting": "[4]; 9.1% cyclohexene, 13 days", "value": 0.95, "unit": "%"},
      {"measurement": "2-Methyl (%) / 5-Chloro (%)", "setting": "[4]; 9.1% cyclohexene, 30 days", "value": 0.66, "unit": "%"},
      {"measurement": "2-Methyl (%) / 5-Chloro (%)", "setting": "[4]; 11.8% cyclohexene, 0 days", "value": 4.4, "unit": "%"},
      {"measurement": "2-Methyl (%) / 5-Chloro (%)", "setting": "[4]; 11.8% cyclohexene, 13 days", "value": 0.59, "unit": "%"},
      {"measurement": "2-Methyl (%) / 5-Chloro (%)", "setting": "[4]; 11.8% cyclohexene, 30 days", "value": 0.62, "unit": "%"},
      {"measurement": "2-Methyl (%) / 5-Chloro (%)", "setting": "[4]; 16.7% cyclohexene, 0 days", "value": 4.3, "unit": "%"},
      {"measurement": "2-Methyl (%) / 5-Chloro (%)", "setting": "[4]; 16.7% cyclohexene, 13 days", "value": 2.6, "unit": "%"},
      {"measurement": "2-Methyl (%) / 5-Chloro (%)", "setting": "[4]; 16.7% cyclohexene, 30 days", "value": 0.46, "unit": "%"},
      {"measurement": "2-Methyl (%) / 5-Chloro (%)", "setting": "[5]; 0% norbornene, 0 days", "value": 4.5, "unit": "%"},
      {"measurement": "2-Methyl (%) / 5-Chloro (%)", "setting": "[5]; 0% norbornene, 14 days", "value": 0.6, "unit": "%"},
      {"measurement": "2-Methyl (%) / 5-Chloro (%)", "setting": "[5]; 1.6% norbornene, 0 days", "value": 4.4, "unit": "%"},
      {"measurement": "2-Methyl (%) / 5-Chloro (%)", "setting": "[5]; 1.6% norbornene, 14 days", "value": 0.18, "unit": "%"},
      {"measurement": "2-Methyl (%) / 5-Chloro (%)", "setting": "[5]; 3.2% norbornene, 0 days", "value": 4.3, "unit": "%"},
      {"measurement": "2-Methyl (%) / 5-Chloro (%)", "setting": "[5]; 3.2% norbornene, 14 days", "value": 3.3, "unit": "%"},
      {"measurement": "2-Methyl (%) / 5-Chloro (%)", "setting": "[5]; 3.2% norbornene, 30 days", "value": 0.6, "unit": "%"},
      {"measurement": "2-Methyl (%) / 5-Chloro (%)", "setting": "[5]; 6.5% norbornene, 0 days", "value": 4.2, "unit": "%"},
      {"measurement": "2-Methyl (%) / 5-Chloro (%)", "setting": "[5]; 6.5% norbornene, 14 days", "value": 3.7, "unit": "%"},
      {"measurement": "2-Methyl (%) / 5-Chloro (%)", "setting": "[5]; 6.5% norbornene, 30 days", "value": 2.7, "unit": "%"},
      {"measurement": "2-Methyl (%) / 5-Chloro (%)", "setting": "[5]; 9.0% norbornene, 0 days", "value": 4.1, "unit": "%"},
      {"measurement": "2-Methyl (%) / 5-Chloro (%)", "setting": "[5]; 9.0% norbornene, 14 days", "value": 3.7, "unit": "%"},
      {"measurement": "2-Methyl (%) / 5-Chloro (%)", "setting": "[5]; 9.0% norbornene, 30 days", "value": 3.3, "unit": "%"},
      {"measurement": "2-Methyl (%) / 5-Chloro (%)", "setting": "[5]; 14.3% norbornene, 0 days", "value": 4.4, "unit": "%"},
      {"measurement": "2-Methyl (%) / 5-Chloro (%)", "setting": "[5]; 14.3% norbornene, 14 days", "value": 3.6, "unit": "%"},
      {"measurement": "2-Methyl (%) / 5-Chloro (%)", "setting": "[5]; 14.3% norbornene, 30 days", "value": 3.3, "unit": "%"}
    ]}
  ]
}
